Measurements from PMC3038857, “Using Nuclear Receptor Activity to Stratify Hepatocarcinogens” (PLoS ONE, 2011).

Tests used:
[1] = system: Rat Liver; conditions: rat, chronic study, ref ToxRefDB; cited from earlier work
[2] = biological target: T1, ESR1 (estrogen receptor 1) (Homo sapiens, UniProt P03372); experiment: ATG_ERE_CIS: Factorial reporter gene assay (HepG2); format: cell-based; conditions: HepG2
T1 construct: expressed in transfected cells; host or cells: HepG2
Description: A multiple reporter transcription unit (MRTU) library consisting of 48 transcription factor binding sites was transfected into the HepG2 human liver hepatoma cell line. In addition to the cis-acting reporter genes (CIS), a modification of the approach was used to generate a trans-system (TRANS) with a mammalian one-hybrid assay consisting of an additional 25 MRTU library reporting the activity of nuclear receptor super-family members. […] These assays were performed by Attagene Inc. (Morrisville NC) under contract to EPA.
In addition to the cis-acting reporter genes (CIS), a modification of the approach was used to generate a trans-system (TRANS) with a mammalian one-hybrid assay consisting of an additional 25 MRTU library reporting the activity of nuclear receptor super-family members. […] Chemicals were then tested in the CIS and TRANS assays at seven concentrations starting at the MTC and followed by three-fold serial dilutions. These assays were performed by Attagene Inc. (Morrisville NC) under contract to EPA. Detailed description of the methods, data and analysis methods for this dataset will be presented in a separate publication.

[3] = system: Rat Liver; conditions: rat, chronic study, ref ToxRefDB; cited from earlier work; remark: listed apart in the source
[4] = system: CYP2B6; experiment: CLZD_CYP2B6: Change in expression of CYP2B6 (primary human hepatocytes); format: cell-based; conditions: 24 hr
Procedure, shortened: (§1)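 Cultured primary human hepatocytes treated with chemicals for 6, 24 or 48 hr across five concentrations spanning 0.004-40 µM, then transcript level measured by quantitative nuclease protection in a multiplexed format.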

[5] = biological target: T2, PXR (NR1I2) (Homo sapiens, UniProt O75469); experiment: ATG_PXRE_CIS: Factorial reporter gene assay (HepG2); format: cell-based; design: endogenous in cells; host or cells: HepG2; conditions: HepG2
T2 sequence (O75469 1-434): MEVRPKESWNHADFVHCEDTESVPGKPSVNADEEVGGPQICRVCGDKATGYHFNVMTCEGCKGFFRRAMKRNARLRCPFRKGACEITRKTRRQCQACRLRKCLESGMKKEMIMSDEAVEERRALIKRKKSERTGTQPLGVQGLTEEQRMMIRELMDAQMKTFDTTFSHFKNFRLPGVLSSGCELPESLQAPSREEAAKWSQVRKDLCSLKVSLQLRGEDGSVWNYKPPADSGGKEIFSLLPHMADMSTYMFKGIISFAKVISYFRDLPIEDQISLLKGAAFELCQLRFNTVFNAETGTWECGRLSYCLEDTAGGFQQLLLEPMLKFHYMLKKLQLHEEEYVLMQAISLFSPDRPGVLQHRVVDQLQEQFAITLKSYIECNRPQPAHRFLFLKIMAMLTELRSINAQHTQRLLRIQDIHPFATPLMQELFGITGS
Procedure, shortened: (§2)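 HepG2 cells transfected with multiplexed reporter libraries: cis-acting binding-site reporters (CIS) and a one-hybrid nuclear-receptor trans system (TRANS). Chemicals tested at seven concentrations, starting at the maximum tolerated concentration with three-fold serial dilutions.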

[6] = system: CYP3A4; experiment: CLZD_CYP3A4: Change in expression of CYP3A4 (primary human hepatocytes); format: cell-based; conditions: 24 hr
Procedure, shortened: as §1

[7] = system: Mouse Liver; conditions: mouse, chronic study, ref ToxRefDB; cited from earlier work
[8] = system: Rat Liver; conditions: rat, chronic study, ref ToxRefDB; cited from earlier work; remark: listed apart in the source
[9] = system: Mouse Liver; conditions: mouse, chronic study, ref ToxRefDB; cited from earlier work; remark: listed apart in the source
[10] = system: Mouse Liver; conditions: mouse, chronic study, ref ToxRefDB; cited from earlier work; remark: listed apart in the source
[11] = biological target: T3, PPARG (peroxisome proliferator-activated receptor gamma) (Homo sapiens, UniProt P37231); experiment: ATG_PPARg_TRANS: Factorial reporter gene assay (HepG2); format: cell-based; conditions: HepG2
T3 construct: expressed in transfected cells; host or cells: HepG2
T3 sequence (P37231 1-505): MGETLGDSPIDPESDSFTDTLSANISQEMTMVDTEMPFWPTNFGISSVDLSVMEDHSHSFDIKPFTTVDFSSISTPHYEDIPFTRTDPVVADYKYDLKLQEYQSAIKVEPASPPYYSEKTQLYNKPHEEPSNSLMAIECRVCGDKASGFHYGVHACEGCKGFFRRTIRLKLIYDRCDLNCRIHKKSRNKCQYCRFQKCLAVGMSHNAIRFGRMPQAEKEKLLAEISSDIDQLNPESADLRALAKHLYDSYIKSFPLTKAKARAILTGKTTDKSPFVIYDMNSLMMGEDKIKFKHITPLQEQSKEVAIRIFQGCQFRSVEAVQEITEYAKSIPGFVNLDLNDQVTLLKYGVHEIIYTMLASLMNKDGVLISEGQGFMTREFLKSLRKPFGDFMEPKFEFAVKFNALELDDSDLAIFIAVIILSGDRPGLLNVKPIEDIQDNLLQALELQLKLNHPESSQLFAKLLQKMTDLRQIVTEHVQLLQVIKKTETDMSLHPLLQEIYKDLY
Procedure, shortened: as §2

[12] = biological target: T2, PXR (NR1I2); experiment: NVS_NR_hPXR: Human PXR Fluormone PXR (SXR) green (cell-free HTS); format: binding
Procedure, shortened: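 Cell-free biochemical binding assays; chemicals first screened at a single concentration of 25 […] M in duplicate wells. Signals normalised to same-plate solvent controls as percent of neutral control, and AC50 values came from Hill-equation fits of concentration-response curves.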

[13] = biological target: T2, PXR (NR1I2); experiment: ATG_PXR_TRANS: Factorial reporter gene assay (HepG2); format: cell-based; design: endogenous in cells; host or cells: HepG2; conditions: HepG2
Procedure, shortened: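 Seven concentrations per chemical, three-fold dilutions down from the MTC, were tested in HepG2 hepatoma cells. Those cells carried a multiple reporter transcription unit library, read either as cis transcription-factor-site reporters or as a trans mammalian one-hybrid panel for nuclear receptors.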

[14] = system: AR (androgen receptor); experiment: NVS_NR_hAR: Human AR 3H-Methyltrienolone (cell-free HTS); format: binding
Source text: These are a collection of biochemical assays measuring binding constants and enzyme inhibition values. Chemicals were initially screened at a single concentration in duplicate wells at a concentration of 10 [drawing 63] M for cytochrome P-450 assays and 25 [drawing 64] M for all others. […] These assays were run by Caliper Life Sciences (Hanover, MD) under contract to EPA. Short assay descriptions are available at: http://www.caliperls.com/products/contract-research/in-vitro/.
Cell-free HTS Assays: A collection of biochemical assays measuring binding constants and enzyme inhibition values. […] These assays were run by Caliper Life Sciences (Hanover, MD) under contract to EPA. Short assay descriptions are available at http://www.caliperls.com/products/contract-research/in-vitro/. Values for all endpoints were imported into GeneData Screener (Basel, Switzerland) and normalised to solvent controls from the same plate as the tested compounds and expressed as percent of neutral control. Concentration-response curves were fit in GeneData Screener (Basel, Switzerland) Condeseo module using the Hill equation and AC50 values were determined. […] Detailed description of the methods, data and analysis methods for this dataset are described in a separate publication.

T1 sequence (P03372 whole entry): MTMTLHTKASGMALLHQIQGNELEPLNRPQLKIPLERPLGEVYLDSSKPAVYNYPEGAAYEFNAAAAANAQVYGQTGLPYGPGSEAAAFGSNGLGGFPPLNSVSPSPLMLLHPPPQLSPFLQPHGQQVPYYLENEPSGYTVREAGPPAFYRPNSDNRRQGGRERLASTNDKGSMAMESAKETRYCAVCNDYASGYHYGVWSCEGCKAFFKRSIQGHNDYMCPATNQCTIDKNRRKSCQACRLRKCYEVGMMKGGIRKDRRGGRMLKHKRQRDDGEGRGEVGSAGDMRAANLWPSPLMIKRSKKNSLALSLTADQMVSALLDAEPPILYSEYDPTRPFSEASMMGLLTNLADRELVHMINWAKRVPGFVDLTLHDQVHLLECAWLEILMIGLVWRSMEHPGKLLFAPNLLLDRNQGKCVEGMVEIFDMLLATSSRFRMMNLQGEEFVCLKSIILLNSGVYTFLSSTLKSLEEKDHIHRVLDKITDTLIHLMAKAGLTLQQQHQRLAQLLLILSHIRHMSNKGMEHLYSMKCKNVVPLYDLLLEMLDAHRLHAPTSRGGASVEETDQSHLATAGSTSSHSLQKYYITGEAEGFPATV

SMILES: Cc1cc(C)nc(NC(=O)NS(=O)(=O)c2ccccc2C(=O)OC2COC2)n1 [r232]
- CHR_Rat_Liver_1_AnyLesion [1]: 6
- ATG_ERE_CIS [2]: 4.319
- CHR_Rat_Liver_2_PreneoplasticLesion [3]: 6
- CLZD_CYP2B6_24 [4]: 4.534
- ATG_PXRE_CIS [5]: 4.337
- CLZD_CYP3A4_24 [6]: 4.535
- CHR_Mouse_Liver_1_AnyLesion [7]: 6
- CHR_Rat_Liver_3_NeoplasticLesion [8]: 0

SMILES: CCCN(CCOc1c(Cl)cc(Cl)cc1Cl)C(=O)n1ccnc1 [r251]
- CHR_Mouse_Liver_2_PreneoplasticLesion [9]: 6
- CHR_Rat_Liver_1_AnyLesion [1]: 6
- CHR_Mouse_Liver_3_NeoplasticLesion [10]: 6
- CHR_Rat_Liver_2_PreneoplasticLesion [3]: 0
- ATG_PPARg_TRANS [11]: 5.456
- ATG_PXRE_CIS [5]: 5.538
- NVS_NR_hPXR [12]: 5.274
- ATG_PXR_TRANS [13]: 5.444
- CHR_Mouse_Liver_1_AnyLesion [7]: 6
- CHR_Rat_Liver_3_NeoplasticLesion [8]: 0
- NVS_NR_hAR [14]: 4.903
